Where two headings read alike, the source gives them in different places.
How the values were obtained:
[1] = set-up: method as in PMID 37358467; conditions: cited from earlier work
[2] = system: K. pneumoniae KPC-Kpn-1; assay: Static time-kill assay in CAMHB; format: cell-based; conditions: in combination with cefepime
Description: (§1) Cation adjusted (25.0 mg/L Ca^2+ and 12.5 mg/L Mg^2+) Mueller-Hinton broth (CAMHB; BBL Microbiology Systems, Cockeysville, MD) and agar (CAMHA; Becton, Dickinson and Company, Sparks, MD) were used for susceptibility testing and for all in vitro experiments. […] All antibiotic solutions were filter sterilized using a 0.22-μm-pore-size filter (Fisher Scientific, Pittsburgh, PA).

[3] = healthy adults, multidose cefepime and zidebactam; cited from earlier work
[4] = system: K. pneumoniae KPC-Kpn-1; assay: Survival of mice infected intravenously via the tail vein; format: in vivo; conditions: male C57BL/6, 7 per group, 2.1 × 10^8 CFU/mouse IV; 100 mg/kg/dose at infection, 18 and 24 h; combination at 1:4 molar ratio
Description: (§2) A 0.2 mL aliquot of a single-use glycerol stock of the KPC-Kpn isolate (at −80°C) was used to seed 20 mL brain heart infusion (BHI) and then incubated at 35–37°C with shaking (120 rpm) for 8 h. Bacterial cells in the 20 mL aliquot were pelleted by centrifugation (3,500 × g) for 15 min and then resuspended in 10 mL cold phosphate buffer saline (PBS). The optical density, OD620 nm, was measured and used to guide dilution. The PBS suspensions were stored on ice for no more than 2 h prior to infecting the animals. The bacterial count in the challenge organism suspension was enumerated by dilution plating to CAMH agar plates followed by 20–24 h incubation.
Seven male C57BL/6 mice per treatment group were infected intravenously via the tail-vein by injecting a prepared inoculum of KPC-Kpn-1, input CFU = 2.1 × 10^8 CFU/mouse, contained in a volume of 0.25 mL per animal. […] Doses were repeated the following morning and afternoon (18 and 24 h after infection). Survival was evaluated 24 h post-treatment. Kaplan-Meier survival curves were generated using log-rank test (GraphPad Prism 10.1, GraphPad Software Inc., San Diego, USA). A P value of <0.05 was considered statistically significant.

[5] = system: K. pneumoniae Kpn ST17 (KPC-2, TEM, SHV, CTX-M group 1); assay: MIC by agar dilution, Kpn ST17; format: cell-based; conditions: Klebsiella pneumoniae, MB076 fixed at 4 µg/mL in the combination
Description: as §1

[6] = system: K. pneumoniae Kpn ST258 C3 (KPC-3); assay: MIC by agar dilution, Kpn ST258 C3; format: cell-based; conditions: Klebsiella pneumoniae, MB076 fixed at 4 µg/mL in the combination
Description: as §1

[7] = system: E. coli ATCC BAA202 (SHV-1); assay: MIC by agar dilution, E. coli ATCC BAA202; format: cell-based; conditions: Escherichia coli, ATCCBAA202, MB076 fixed at 4 µg/mL in the combination
Description: as §1

[8] = system: K. pneumoniae Kpn ST258 B5 (KPC-2); assay: MIC by agar dilution, Kpn ST258 B5; format: cell-based; conditions: Klebsiella pneumoniae, MB076 fixed at 4 µg/mL in the combination
Description: as §1

[9] = system: K. pneumoniae isolate KPC-Kpn-1; assay: Neutropenic mouse lung infection model (intranasal challenge); format: in vivo; conditions: 24 h post treatment; treatment from 2 h post infection; cefepime 127.5 mg/kg/day SC, MB076 100 mg/kg/day IV (25 mg/kg every 6 h); neutropenic mice, n = 5
Description: as §2
Eleven- to 12-week-old BALB/c mice obtained from Charles River Laboratories (Raleigh, NC) were allowed to acclimatize for at least 1 week prior to initiating the studies. All animal procedures were approved by the Institutional Animal Care and Use Committee at the University of North Carolina at Chapel Hill (IACUC ID: 21-125.0), and all experiments were performed in accordance with institutional guidelines for animal experiments. […]
Five mice/group were sacrificed by overdose of inhaled 5% isoflurane at 26 h post inoculation. […] Lung bacterial counts were analyzed using a one-way ANOVA followed by post-hoc Tukey multiple comparison test (GraphPad Prism 10.1, GraphPad Software Inc., San Diego, USA). […]

[10] = system: K. pneumoniae Kpn 255 (TEM-1, SHV-2); assay: MIC by agar dilution, Kpn 255; format: cell-based; conditions: Klebsiella pneumoniae, MB076 fixed at 4 µg/mL in the combination
Description: as §1

[11] = system: K. pneumoniae Kpn 34700 (CTX-M-15, SHV, TEM); assay: MIC by agar dilution, Kpn 34700; format: cell-based; conditions: Klebsiella pneumoniae, MB076 fixed at 4 µg/mL in the combination
Description: as §1

[12] = system: K. pneumoniae Kpn266 (SHV-5); assay: MIC by agar dilution, Kpn266; format: cell-based; conditions: Klebsiella pneumoniae, MB076 fixed at 4 µg/mL in the combination
Description: as §1

[13] = system: K. pneumoniae Kpn original KPC-2; assay: MIC by agar dilution, Kpn original KPC-2; format: cell-based; conditions: Klebsiella pneumoniae, MB076 fixed at 4 µg/mL in the combination
Description: as §1

[14] = system: K. pneumoniae KPC-Kpn-1 (KPC-3, SHV-12, TEM-1); assay: MIC by agar dilution, KPC-Kpn-1; format: cell-based; conditions: Klebsiella pneumoniae, inhibitor (MB076 or S02030) fixed at 4 µg/mL in the combination
Description: as §1

[15] = Plasma pharmacokinetics of MB076 after single IV dose in thigh-infected mice; format: in vivo, mouse; conditions: for half-life / AUC(0-t) / AUC(0-inf) / C0 / clearance / Vd: plasma; for half-life: iv; for Vd: read-out: Vss
Description: A single dose PK study was conducted in mice infected with K. pneumoniae AR-BANK#0098 (producing KPC-2, OXA-9, and TEM-1) employing a thigh infection model. Escalating doses of MB076 (12.5, 25, 50, and 100 mg/kg) were intravenously administered via the tail vein. Following this terminal blood sampling via cardiac puncture was performed at eight different time points 5, 15, 30, 60, 90, 120, 180, and 240 min for each dose level. Plasma was separated by centrifugation at 4,000g for 10 min at 4°C and stored at −80°C until MB076 quantification was performed by LC/MS-MS bioanalysis.
WinNonlin software (Phoenix Build 8.3.1.5014) was employed to perform noncompartmental analysis (NCA) to calculate the PK parameters like elimination half-life (t1/2), area under the concentration–time curve over the duration of study (AUC0–last), and infinity (AUC0–inf), and the peak drug concentration (C0), volume of distribution (V) and clearance (CL). The AUCs for the different MB076 dose levels were calculated and compared to assess for any dose related non-linearity with increasing dose.
Terminal blood collection from cardiac puncture was conducted under CO2 euthanasia. Blood, 0.3–0.4 mL, was drawn into tubes coated with K2EDTA, mixed gently and kept on ice, and centrifuged at 12,000 × g for 5 min at 4°C within 1 h of collection. The plasma was harvested and stored at −80°C until further processing.
A 20 µL aliquot of each plasma sample was transferred to a 96 well plate. A 500 µL aliquot of 0.01 ng/µL internal standard (IS), Oxybutynin, in ACN/FA = 95/5, was added to each tube except for the double blank and carryover controls. A 500 µL aliquot of ACN/FA = 95/5, without oxybutynin, was added to the double blank and carryover assay wells. The equilibrated mixture was vortexed for 1 min and then centrifuged at 4,000 rpm for 10 min at 20°C to precipitate protein. After centrifugation, 500 µL of the supernatant was transferred to a new well of the 96 well plate for LC-MS/MS analysis. Plasma samples from treatment groups and the calibration curve samples were processed on the same test occasion using the same procedure. The calibration curve samples were generated by spiking aliquots of drug-free plasma with an MB076 dilution. The quality control (QC) samples, QH (high), QM (medium), and QL (low) were each assayed in duplicate.
LC-MS/MS was conducted with a SCIEX Triple Quad 5500 + mass spectrometer. Method development was conducted to determine appropriate conditions for LC-MS/MS analysis of MB076. A titration of a stock solution was performed to correlate peak areas and the corresponding concentration. The reportable linear range of the assay was determined along with the lower and upper limits of quantitation (LLOQ and […]).
To develop the bioanalytical method, MB076 was prepared in ACN/H2O = 50/50 at 1 ng/µL. Full scan MS analyses were conducted, and total ion current chromatograms and corresponding mass spectra were reviewed for MB076 in both positive and negative ionization modes. The precursor ions for MS/MS were selected from either the positive or the negative mass spectrum, as a function of the respective ion abundance. In addition, product ion MS/MS analysis was performed to determine the appropriately selected fragmentation reaction for use in quantitative analysis. The final reaction monitoring parameters were chosen to maximize the ability to quantify the test compound when present within a complex mixture of components. Following the identification of the specific multiple reaction monitoring (MRM) transition to be used for each test compound, the detection parameters were optimized. MB076 was observed as one charged ion [M + H]+ and the MRM chosen was m/z = 374.0 to m/z = 243.2 for MB076 in electrospray positive ion mode.
The chromatographic conditions used for LC-MS analysis were identified by injection and separation of the analyte on a suitable LC column followed by adjustment of the gradient conditions as necessary. […]

[16] = mouse, 12.5 mg/kg single IV, thigh-infected mice
[17] = mouse, 25 mg/kg single IV, thigh-infected mice
[18] = mouse, 50 mg/kg single IV, thigh-infected mice
[19] = mouse, 100 mg/kg single IV, thigh-infected mice

O=C(Cc1cccs1)N[C@@H](Cn1cc(C(=O)O)nn1)B(O)O [S02030]
t1/2 (plasma stability) [1]: 540 min | inhibitor concentration achieving sustained bacterial killing [2]: 8 µg/mL

CO/N=C(\C(=O)N[C@@H]1C(=O)N2C(C(=O)[O-])=C(C[N+]3(C)CCCC3)CS[C@H]12)c1csc(N)n1 [FEP, cefepime]
median AUCELF/AUCplasma [3]: 38% | survival outcome of all mice in the group [4]: died | MIC [5]: 8 µg/mL | MIC [6]: 32 µg/mL | MIC [7]: 1 µg/mL | MIC [8]: 32 µg/mL | log10 CFU reduction in lung compared to the no treatment control group [9]: 1.07 log10 CFU | MIC [10]: 4 µg/mL | MIC [11]: 32 µg/mL | MIC [12]: 2 µg/mL | MIC [13]: 64 µg/mL | MIC [14]: 32 µg/mL

Nc1nnc(SCC(=O)N[C@@H](Cn2cc(C(=O)O)nn2)B(O)O)s1 [MB076]
reduction in clearance ([15]; 100 mg/kg compared to 12.5 mg/kg): 1.7 fold | increase of dose-normalized AUC ([15]; from 12.5 to 100 mg/kg dose): twofold | extraction ratio ([15]; hepatic blood flow in mouse 5.4 L/h/kg): 0.33 | clearance classification ([15]; mouse, IV): low clearance compound | half-life ([15]; mouse, 25 mg/kg, 25 mg/kg single IV, thigh-infected mice): 36.6 min | half-life ([15]; mouse, 50 mg/kg, 50 mg/kg single IV, thigh-infected mice): 25.8 min | half-life ([15]; mouse, 100 mg/kg, 100 mg/kg single IV, thigh-infected mice): 25.8 min | AUC(0-t) ([15]; mouse, single IV 12.5 to 100 mg/kg, infected mice, read-out: AUClast, range over the dose levels): 7100 to 103000 ng·h/mL | dose linearity of plasma PK ([15]; mouse, single IV): linear PK in plasma up to 50 mg/kg dose | AUC(0-inf) [15, 16]: 7200 ng·h/mL | C0 [15, 16]: 35.6 µg/mL | clearance [15, 16]: 29.1 mL/min/kg | AUC(0-t) ([15]; mouse, 12.5 mg/kg single IV, thigh-infected mice, read-out: AUClast): 7100 ng·h/mL | Vd [15, 16]: 0.65 L/kg | AUC(0-inf) [15, 17]: 17800 ng·h/mL | C0 [15, 17]: 84 µg/mL | clearance [15, 17]: 23.4 mL/min/kg | AUC(0-t) ([15]; mouse, 25 mg/kg single IV, thigh-infected mice, read-out: AUClast): 17600 ng·h/mL | Vd [15, 17]: 0.8 L/kg | AUC(0-inf) [15, 18]: 31900 ng·h/mL | C0 [15, 18]: 207 µg/mL | clearance [15, 18]: 21.3 mL/min/kg | AUC(0-t) ([15]; mouse, 50 mg/kg single IV, thigh-infected mice, read-out: AUClast): 39000 ng·h/mL | Vd [15, 18]: 0.35 L/kg | AUC(0-inf) [15, 19]: 104000 ng·h/mL | C0 [15, 19]: 638 µg/mL | clearance [15, 19]: 16.1 mL/min/kg | AUC(0-t) ([15]; mouse, 100 mg/kg single IV, thigh-infected mice, read-out: AUClast): 103000 ng·h/mL | Vd [15, 19]: 0.21 L/kg | t1/2 (plasma stability) [1]: 1740 min | inhibitor concentration achieving sustained bacterial killing [2]: 4 µg/mL

— PMC11881554 (Antimicrobial Agents and Chemotherapy, 2025)
